3 molecules from patent publication US10266577B2, “GLP-1 derivatives, and uses thereof” (Novo Nordisk A/S, priority 2013, dated 2019) can be followed below.

For data set [1], the target named is T1, human GLP-1 receptor (Homo sapiens, UniProt P43220).
T1 construct: expressed in transfected cells; host or cells: BHK cells (parent line BHKTS13), clone FCW467-12A; membrane preparation
Briefly: In vitro potency: CRE luciferase reporter gene assay in BHK cells expressing the human GLP-1 receptor. It counts as cell-based. Particulars: whole cell reporter gene assay, BHK clone FCW467-12A/KZ10-1; averages of at least two replicates.
Procedure: The purpose of this example is to test the activity, or potency, of the GLP-1 derivatives in vitro. The in vitro potency is the measure of human GLP-1 receptor activation in a whole cell assay.
In vitro potency was determined by measuring the response of the human GLP-1 receptor in a reporter gene assay. The assay was performed in a stably transfected BHK cell line that expresses the human GLP-1 receptor and contains the DNA for the cAMP response element (CRE) coupled to a promoter and the gene for firefly luciferase (CRE luciferase). When the human GLP-1 receptor is activated it results in the production of cAMP, which in turn results in the luciferase protein being expressed. When assay incubation is completed the luciferase substrate (luciferin) is added and the enzyme converts luciferin to oxyluciferin to produce bioluminescence. The luminescence is measured as the readout for the assay.
The cells were cultured at 5% CO2 in Cell Culture Medium. They were aliquoted and stored in liquid nitrogen. Before each assay an aliquot is taken up and washed twice in PBS before being suspended at the desired concentration in the assay specific buffer. For 96-well plates the suspension was made to give a final concentration of 5×10^3 cells/well.
The following chemicals were used in the assay: Pluronic F-68 (10%) (Gibco 2404), human serum albumin (HSA) (Sigma A9511), ovalbumin (Sigma A5503), DMEM w/o phenol red (Gibco 11880-028), 1 M Hepes (Gibco 15630), Glutamax 100× (Gibco 35050) and steadylite plus (PerkinElmer 6016757).
Cell Culture Medium consisted of DMEM medium with 10% FBS (Fetal Bovine Serum; Invitrogen 16140-071), 1 mg/ml G418 (Invitrogen 15140-122), 240 nM MTX (methotrexate; Sigma M9929) and 1% pen/strep (penicillin/streptomycin; Invitrogen 15140-122).
Assay Medium consisted of DMEM w/o phenol red, 10 mM Hepes and 1× Glutamax. The Assay Buffer consisted of 2% ovalbumin and 0.2% Pluronic F-68 in Assay Medium.
1) Cell stocks were thawed in a 37° C. water bath.
2) Cells were washed three times in PBS.
3) The cells were counted and adjusted to 5×10^3 cells/50 μl (1×10^5 cells/ml) in Assay Medium. A 50 μl aliquot of cells was transferred to each well in the assay plate.
4) Stocks of the test compounds and reference compounds were diluted to a concentration of 0.2 pM in Assay Buffer. […] Compounds were tested at the following final concentrations: 1×10^−7 M, 1×10^−8 M; 1×10^−9 M, 1×10^−10 M, 1×10^−11 M, 1×10^−12 M, 1×10^−13 M, and 1×10^−14 M. 6) The assay plate was incubated for 3 h in a 5% CO2 incubator at 37° C. 7) The assay plate was removed from the incubator and allowed to stand at room temperature for 15 min. 8) A 100 μl aliquot of steadylite plus reagent was added to each well of the assay plate (reagent was light sensitive). 9) Each assay plate was covered with aluminum foil to protect it from light and shaken for 30 min at room temperature. 10) Each assay plate was read in a Packard TopCount NXT instrument. Calculations and Results
The data from the TopCount instrument were transferred to GraphPad Prism software. The software performs a non-linear regression (log(agonist) vs response).
A minimum of two replicates was measured for each sample. The reported values are averages of the replicates.

The target of data set [2] is T1, human GLP-1 receptor. Briefly: GLP-1 receptor binding: competitive binding assay (125I-GLP-1, SPA) on isolated membranes at low and high HSA. To be noted: displacement of 125I-GLP-1.
Procedure: The purpose of this example is to test the receptor binding of the GLP-1 derivatives in vitro. The receptor binding is a measure of affinity of a derivative for the human GLP-1 receptor.
In this type of assay a labelled ligand (in this case ^125I-GLP-1) is bound to the receptor. Each derivative is added in a series of concentrations to isolated membranes containing the human GLP-1 receptor and displacement of the labelled ligand is monitored. The receptor binding is reported as the concentration at which half of the labelled ligand is displaced from the receptor, the IC50 value.
The following chemicals were used in the assay: Human serum albumin (HSA) (Sigma A1653), DMEM w/o phenol red (Gibco 11880-028), Pen/strep (Invitrogen 15140-122), G418 (Invitrogen 10131-027), 1 M Hepes (Gibco 15630), EDTA (Invitrogen 15575-038), PBS (Invitrogen 14190-094), fetal calf serum (Invitrogen 16140-071), EGTA, MgCl2 (Merck 1.05832.1000), Tween 20 (Amresco 0850C335), SPA particles (wheat germ agglutinin (WGA) SPA beads, Perkin Elmer RPNQ0001), [^125I]-GLP-1]-(7-36)NH2 (produced in-house), OptiPlate™-96 (Packard 6005290).
Buffer 1 consisted of 20 mM Na-HEPES plus 10 mM EDTA and pH was adjusted to 7.4. Buffer 2 consisted of 20 mM Na-HEPES plus 0.1 mM EDTA and pH was adjusted to 7.4. Assay buffer consisted of 50 mM HEPES supplemented with 5 mM EGTA, 5 mM MgCl2, 0.005% Tween 20 and pH was adjusted to 7.4. An 8% albumin stock consisted of HSA dissolved at 8% (w/v) in assay buffer. An 0.02% albumin stock consisted of HSA dissolved at 0.02% (w/v) in assay buffer.
The cells express the human GLP-1 receptor.
The cells were grown at 5% CO2 in DMEM, 10% fetal calf serum, 1% Pen/Strep (Penicillin/Streptomycin) and 1.0 mg/ml of the selection marker G418.
To make a membrane preparation the cells were grown to approximately 80% confluence. The cells were washed twice in phosphate-buffered saline and harvested. The cells were pelleted using a brief centrifugation and the cell pellet was kept on ice. The cell pellet was homogenised with ULTRA-THURRAX™ dispersing instrument for 20-30 seconds in a suitable amount of buffer 1 (e.g., 10 ml). The homogenate was centrifuged for 15 minutes. The pellet was re-suspended (homogenised) in 10 ml buffer 2 and centrifuged. This step was repeated once more. The resulting pellet was re-suspended in buffer 2 and the protein concentration was determined. The membranes were aliquoted and stored at minus 80° C.
For the receptor binding assay in the presence of low HSA (0.005%) 50 μl of the assay buffer was added to each well of an assay plate. Assay continued with step 3.
For the receptor binding assay in the presence of high HSA (2%) 50 μl of the 8% albumin stock was added to each well of an assay plate. Assay continued with step 3.
Cell membrane aliquots were thawed and diluted to their working concentration. Fifty μl were added to each well in the assay plate.
WGA SPA beads were suspended in assay buffer at 20 mg/ml. The suspension was diluted to 10 mg/ml in assay buffer just prior to addition to the assay plate. Fifty μl were added to each well in the assay plate.
The incubation was started by adding 25 μl of 480 pM solution of [^125I]-GLP-1]-(7-36)NH2 to each well of the assay plate. A 25 μl aliquot was reserved for measuring total counts/well.
The assay plate was incubated for 2 h at 30° C.
The assay plate was centrifuged for 10 min.
The assay plate was read in a Packard TopCount NXT instrument.
The data from the TopCount instrument were transferred to GraphPad Prism software. The software averaged the values for the replicates and performed a non-linear regression. IC50 values were calculated by the software and reported in nM.
Data set [3] is described as follows: Pharmacokinetic study in minipigs (i.v.). To be noted: male, Göttingen, minipig, in vivo, iv, 2 nmol/kg.
Procedure: (§1) The purpose of this study is to determine the protraction in vivo of the GLP-1 derivatives after i.v. administration to minipigs, i.e. the prolongation of their time in the body and thereby their time of action. This is done in a pharmacokinetic (PK) study, where the terminal half-life of the derivative in question is determined. By terminal half-life is meant the time it takes to halve a certain plasma concentration in the terminal elimination phase.
(§2) Male Göttingen minipigs were obtained from Ellegaard Göttingen Minipigs (Dalmose, Denmark) approximately 7-14 months of age and weighing approximately 16-35 kg were used in the studies. The minipigs were housed either individually (pigs with permanent catheters) or in a group and fed restrictedly once or twice daily with SDS minipig diet (Special Diets Services, Essex, UK).
(§3) After at least 2 weeks of acclimatisation two permanent central venous catheters were implanted in vena cava caudalis or cranialis in each animal. The animals were allowed 1 week recovery after the surgery, and were then used for repeated pharmacokinetic studies with a suitable wash-out period between successive GLP-1 derivative dosings.
(§4) Blood samples (for example 0.8 ml) were collected in EDTA buffer (8 mM) and then centrifuged at 4° C. and 1942G for 10 minutes.
(§5) Plasma was pipetted into Micronic tubes on dry ice, and kept at −20° C. until analysed for plasma concentration of the respective GLP-1 compound using LOCI. Individual plasma concentration-time profiles were analyzed by a non-compartmental pharmacokinetic method in Phoenix v. 6.2 (Pharsight Inc., Mountain View, Calif., USA), or other relevant software for PK analysis, and the resulting terminal half-lives (harmonic mean) determined.
A further data set can be described thus: in vivo. To be noted: male, Göttingen, minipig, iv.

T1 sequence (P43220 24-463): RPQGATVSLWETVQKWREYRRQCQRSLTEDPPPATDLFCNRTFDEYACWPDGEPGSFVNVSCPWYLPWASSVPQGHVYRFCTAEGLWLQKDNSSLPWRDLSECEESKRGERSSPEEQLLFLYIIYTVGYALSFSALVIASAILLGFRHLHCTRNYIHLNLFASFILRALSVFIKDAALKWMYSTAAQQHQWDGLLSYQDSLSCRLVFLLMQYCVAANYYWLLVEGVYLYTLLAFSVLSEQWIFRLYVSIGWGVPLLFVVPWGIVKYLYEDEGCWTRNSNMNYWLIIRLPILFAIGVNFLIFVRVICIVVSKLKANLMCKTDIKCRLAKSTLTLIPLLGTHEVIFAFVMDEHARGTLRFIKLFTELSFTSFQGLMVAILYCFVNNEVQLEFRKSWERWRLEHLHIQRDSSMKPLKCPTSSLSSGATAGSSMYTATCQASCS
Procedure for in vivo: as §1, §2, §3, §4, §5

With `CC[C@H](C)[C@H](NC(=O)[C@H](Cc1ccccc1)NC(=O)[C@H](CCC(=O)O)NC(=O)[C@H](CCCNC(=N)N)NC(=O)[C@H](C)NC(=O)[C@H](C)NC(=O)[C@H](CCC(N)=O)NC(=O)[C@H](CCCCNC(=O)COCCOCCNC(=O)COCCOCCNC(=O)COCCOCCNC(=O)COCCOCCNC(=O)COCCOCCNC(=O)[C@@H](N)CCCCNC(=O)[C@@H](N)CCCCNC(=O)CCCCCCCCCCCCCCCCC(=O)O)NC(=O)[C@H](CCC(=O)O)NC(=O)[C@H](CC(C)C)NC(=O)[C@H](Cc1ccc(O)cc1)NC(=O)[C@H](CCCCNC(=O)COCCOCCNC(=O)COCCOCCNC(=O)COCCOCCNC(=O)COCCOCCNC(=O)COCCOCCNC(=O)[C@@H](N)CCCCNC(=O)[C@@H](N)CCCCNC(=O)CCCCCCCCCCCCCCCCC(=O)O)NC(=O)[C@H](CO)NC(=O)[C@@H](NC(=O)[C@H](CC(=O)O)NC(=O)[C@H](CO)NC(=O)[C@@H](NC(=O)[C@H](Cc1ccccc1)NC(=O)[C@@H](NC(=O)CNC(=O)[C@H](CCC(=O)O)NC(=O)C(C)(C)NC(=O)[C@@H](N)Cc1c[nH]cn1)[C@@H](C)O)[C@@H](C)O)C(C)C)C(=O)N[C@@H](CCCCNC(=O)COCCOCCNC(=O)COCCOCCNC(=O)COCCOCCNC(=O)COCCOCCNC(=O)COCCOCCNC(=O)[C@@H](N)CCCCNC(=O)[C@@H](N)CCCCNC(=O)CCCCCCCCCCCCCCCCC(=O)O)C(=O)N[C@@H](Cc1c[nH]c2ccccc12)C(=O)N[C@@H](CC(C)C)C(=O)N[C@H](C(=O)N[C@@H](CCCNC(=N)N)C(=O)NCC(=O)N[C@@H](CCCNC(=N)N)C(=O)NCC(=O)O)C(C)C` [Example 16], the EC50 at human GLP-1 receptor [1] was 0.014 nM. This molecule also had a Low HSA IC50 at human GLP-1 receptor [2] (Low HSA IC50, low serum albumin (max. 0.001% final assay concentration)) of 0.4 nM.
With `CC[C@H](C)[C@H](NC(=O)[C@H](Cc1ccccc1)NC(=O)[C@H](CCC(=O)O)NC(=O)[C@H](CCCNC(=N)N)NC(=O)[C@H](C)NC(=O)[C@H](C)NC(=O)[C@H](CCC(N)=O)NC(=O)[C@H](CCCCNC(=O)COCCOCCNC(=O)COCCOCCNC(=O)CC[C@H](NC(=O)[C@H]1CC[C@H](CNC(=O)CCCCCCCCCCCCCCCS(=O)(=O)O)CC1)C(=O)O)NC(=O)[C@H](CCC(=O)O)NC(=O)[C@H](CC(C)C)NC(=O)[C@H](Cc1ccc(O)cc1)NC(=O)[C@H](CCCCNC(=O)COCCOCCNC(=O)COCCOCCNC(=O)CC[C@H](NC(=O)[C@H]1CC[C@H](CNC(=O)CCCCCCCCCCCCCCCS(=O)(=O)O)CC1)C(=O)O)NC(=O)[C@H](CO)NC(=O)[C@@H](NC(=O)[C@H](CC(=O)O)NC(=O)[C@H](CO)NC(=O)[C@@H](NC(=O)[C@H](Cc1ccccc1)NC(=O)[C@@H](NC(=O)CNC(=O)[C@H](CCC(=O)O)NC(=O)C(C)(C)NC(=O)[C@@H](N)Cc1c[nH]cn1)[C@@H](C)O)[C@@H](C)O)C(C)C)C(=O)N[C@@H](CCCCNC(=O)COCCOCCNC(=O)COCCOCCNC(=O)CC[C@H](NC(=O)[C@H]1CC[C@H](CNC(=O)CCCCCCCCCCCCCCCS(=O)(=O)O)CC1)C(=O)O)C(=O)N[C@@H](Cc1c[nH]c2ccccc12)C(=O)N[C@@H](CC(C)C)C(=O)N[C@H](C(=O)N[C@@H](CCCNC(=N)N)C(=O)NCC(=O)N[C@@H](CCCNC(=N)N)C(=O)NCC(=O)O)C(C)C` [Example 1], the half-life in data set [3] was 6.75 days.
At human GLP-1 receptor [1], `CC[C@H](C)[C@H](NC(=O)[C@H](Cc1ccccc1)NC(=O)[C@H](CCC(=O)O)NC(=O)[C@H](CCCNC(=N)N)NC(=O)[C@H](C)NC(=O)[C@H](C)NC(=O)[C@H](CCC(N)=O)NC(=O)[C@H](CCCCNC(=O)COCCOCCNC(=O)COCCOCCNC(=O)[C@@H](N)CCCCNC(=O)[C@@H](N)CCCCNC(=O)CCCCCCCCCCCCCCCS(=O)(=O)O)NC(=O)[C@H](CCC(=O)O)NC(=O)[C@H](CC(C)C)NC(=O)[C@H](Cc1ccc(O)cc1)NC(=O)[C@H](CCCCNC(=O)COCCOCCNC(=O)COCCOCCNC(=O)[C@@H](N)CCCCNC(=O)[C@@H](N)CCCCNC(=O)CCCCCCCCCCCCCCCS(=O)(=O)O)NC(=O)[C@H](CO)NC(=O)[C@@H](NC(=O)[C@H](CC(=O)O)NC(=O)[C@H](CO)NC(=O)[C@@H](NC(=O)[C@H](Cc1ccccc1)NC(=O)[C@@H](NC(=O)CNC(=O)[C@H](CCC(=O)O)NC(=O)C(C)(C)NC(=O)[C@@H](N)Cc1c[nH]cn1)[C@@H](C)O)[C@@H](C)O)C(C)C)C(=O)N[C@@H](CCCCNC(=O)COCCOCCNC(=O)COCCOCCNC(=O)[C@@H](N)CCCCNC(=O)[C@@H](N)CCCCNC(=O)CCCCCCCCCCCCCCCS(=O)(=O)O)C(=O)N[C@@H](Cc1c[nH]c2ccccc12)C(=O)N[C@@H](CC(C)C)C(=O)N[C@H](C(=O)N[C@@H](CCCNC(=N)N)C(=O)NCC(=O)N[C@@H](CCCNC(=N)N)C(=O)NCC(=O)O)C(C)C` [Example 14] displayed an EC50 of 0.018 nM. In the data set “in vivo”, this molecule gave a half-life of 5.83 days. The same molecule gave an IC50 on human GLP-1 receptor [2] (high serum albumin (2.0% HSA final assay concentration)) of 100 nM.
